Measurements from patent US11110080B2, “Small molecule inhibitors of bacterial efflux pumps and methods of using same” (The Regents of the University of Colorado, a body Corporate, priority 2017, dated 2021).
Entries after “also recorded” stand apart in the source; their conditions may differ. Where two headings read alike, the source gives them in different places. Peptide text beside a SMILES is read from it. * marks the point of attachment. βNA = c1ccc2cc(N*)ccc2c1

Tests used:
[1] = system: Salmonella enterica serovar Typhimurium (S.Tm) within RAW 264.7 murine macrophages; test: SAFIRE: fluorescence microscopy assay of S.Tm load within macrophages; format: cell-based; conditions: for percentage of infected macrophages (validated hit): among the 309 hits; for hit status in SAFIRE screen: Maybridge HitFinder v11 library screened at 25 μM
Experimental: A high-content, high-throughput fluorescence microscopy-based screening platform to assay S.Tm load within macrophages was developed (FIG. 1A). RAW 264.7 murine macrophages, a widely used cell line for bacterial infection studies, were infected with bacteria in a standard gentamicin protection assay. The Salmonella expressing GFP driven by the sifB promoter was incubated with the compound beginning at 2 hours post-infection. At 18 hours post-infection, cells were stained with MitoTracker Red CMXRos as a marker of macrophage vitality and processed for fluorescence microscopy. Stained with DAPI. A MATLAB®-based algorithm was developed to quantify infection (FIG. 1B) and compared to statistics to describe infection. Percentage of infected cells was determined by counting the proportion of macrophages within an image with at least 2 GFP+ pixels. Infection area was calculated by normalizing the number of GFP+ pixels within a cell to the cell's total area, then averaging across all cells in an image. To evaluate the approach, 2 μg/ml rifampicin in 96-well and 384-well plates was tested in three independent replicates. The Z′-factor was employed as a measure of assay reproducibility. Numbers close to 1 indicated high reproducibility. For percentage of infected macrophages, the Z′-factor was 0.59 and 0.48 in 96-well and 384-well plates, respectively, compared with 0.66 and 0.38 for infection area. The optimal Z′-factor threshold for high-throughput screening was 0.5; however, values above 0 were considered marginal but feasible. Therefore, the percentage of infected macrophages statistic was used.
The 14,400 compound library Maybridge HitFinder™ v11 was screened, which has been extensively screened against mammalian and microbial targets. The library was screened in duplicate at 25 μM in 384-well plates (FIG. 1C). Data were normalized using the B-score method to remove positional variation. The significance of B-scores was calculated using a modified t-test assuming an inverse gamma distribution of variances. Using a dual threshold of B-score greater than 1 and standard deviation from the mean and p-value less than 0.05, 908 compounds (6.3%) were identified that decreased or increased the percentage of infected macrophages. […] Compounds that altered infection by at least 25% in 96-well plates were considered validated hits.
For high-throughput screening and validation, 7×10^3 macrophages in 40 μL or 3×10^4 macrophages in 100 μL were seeded in 384- or 96-well black-walled, glass-bottomed plates (Brooks Automation). […] Forty-five minutes after bacterial addition, 20 or 50 μL gentamicin was added to a final concentration of 40 μg/mL. […] At 2 hours post-infection, 200 or 500 nL compound was added using a pin tool (CyBio) to yield a final concentration of 25 μM. Each assay plate included rifampicin and DMSO controls. In some experiments, media was removed and replaced with fresh medium containing 40 μg/mL gentamicin and the indicated concentrations of drugs. At 17.5 hours post-infection, PBS containing MitoTracker Red CMXRos (Life Technologies) was added to yield a final concentration of 300 nM (384-well) or 100 nM (96-well). Thirty minutes later, 16% paraformaldehyde was added to a final concentration of 1-2% and incubated at room temperature for 15 minutes. Wells were washed twice with PBS and stained for 20 minutes with 1 μM DAPI; wells were washed twice and stored in 90% glycerol in PBS until imaging.
High magnification images were acquired on an Olympus IX81 inverted widefield microscope. For screening imaging, three-color images were acquired at 10× or 20× on a Cellomics ArrayScan VTI (Thermo) and exported to DIB files. At least two images were taken per well for all experiments. […]

[2] = system: S.Tm efflux pumps; test: Hoechst 33342 accumulation assay; format: cell-based, Salmonella enterica serovar Typhimurium; conditions: wild-type S.Tm, 60 minutes
Experimental: Efflux pumps (EPs) represent a key pathogen virulence strategy to protect against host antimicrobials as well as therapeutic antibiotics. […] To uncover putative EPMs within our collection of hits, 58 repurchased compounds were screened in a Hoechst accumulation assay. Bacteria were incubated with Hoechst 33342, a dye which fluoresces when bound to DNA.
Hoechst accumulation assays were performed essentially as described in the literature. Briefly, overnight Salmonella cultures were washed 3 times in PBS and diluted to an OD of 0.1 in PBS with 2.5 μM Hoechst 33342 in the presence of the indicated concentrations of compounds. Fluorescence was monitored on a Biotek Synergy 2 with a 360/40 nm excitation filter and 460/40 nm emission filter. The maximum Hoechst fluorescence over 60 minutes of incubation was normalized to the signal from the equivalent number of heat-killed bacteria, after subtraction of autofluroescent signal determined from compound incubated in the absence of bacteria. Curve fitting to determine EC50s was performed using GraphPad Prism.

[3] = system: S.Tm efflux pumps; test: Nile Red efflux assay; format: cell-based, Salmonella enterica serovar Typhimurium
Excerpt: Because Hoechst and other dyes commonly used to assess efflux bind cellular components, direct measurement of efflux is not possible using these methods; instead, the Hoechst assay measures dye accumulation, the net result of entry and efflux. Further, the slow off-rate of Hoechst entails that efflux pumps have no effect on dye already bound to DNA. As a result, compounds which increase Hoechst accumulation may actually enhance dye entry by altering porins or disrupting the membrane. To more specifically measure efflux pump activity, a second technique was employed using the dye Nile Red, a lipophilic membrane-partitioning dye which fluoresces in nonpolar environments. Because Nile Red is not known to bind cellular components, to directly observe efflux cells were preloaded with the dye in the absence of glucose to reduce efflux pump activity (FIG. 7A). Upon addition of glucose, bacteria rapidly effluxed Nile Red and fluorescence returned to baseline levels (FIG. 7B, top panel). […] The initial measured fluorescence was lower for DMSO-treated cells (upper dotted line) than for PAβN-treated cells due to glucose-independent efflux during sample preparation (FIG. 8A). Next, it was determined whether efflux pump activity is restored after removal of PAβN. Bacteria were incubated with compound for 15 minutes, pelleted and resuspended in buffer lacking compound, and then stimulated with glucose (FIGS. 7C, 7E).
Nile Red assays were adapted from an established protocol. Briefly, overnight Salmonella cultures were grown in Mueller-Hinton cation-adjusted broth (Sigma), washed, and resuspended at an OD600 of 2.0. Cells were incubated in 10 μM Nile Red for 3 hours at 37° C. with aeration, then moved to room temperature for 1 hour. After pelleting at 2000× g, dye-loaded cells were aliquoted and combined with compound at the indicated concentrations. Two hundred microliters was loaded into 96-well black walled plates (Greiner) and read using a Varioskan Flash Multimode Reader with 540 nm excitation and 625 nm emission filters. We observed that during loading into plates (˜20 minutes), bacteria were able to efflux Nile Red even in the absence of glucose (FIG. 8A). To activate efflux, glucose was added to a final concentration of 2 mM. In some experiments, bacteria were treated with drug for 15 minutes, pelleted at 16,000×g, resuspended in fresh buffer, and stimulated with 2 mM glucose. All wash and incubation steps were performed in PBS with 1 mM MgCl2; incubations were performed in glass tubes to reduce adhesion of Nile Red.

[4] = Log D, solubility and predicted bioavailability; format: physicochemical; conditions: high concentrations
[5] = system: S.Tm wild-type SL1344, MAR1 and S10801; test: microbe, parasite or virus in culture; format: cell-based, Salmonella enterica serovar Typhimurium; conditions: for MIC: Salmonella enterica
Experimental: Increased expression or function of efflux pumps often contributes to clinical multidrug resistance. Therefore, whether the EPMs re-sensitize two multidrug resistant strains of S.Tm to tetracycline was tested. Tetracycline is an antibiotic exported by AcrAB. The MAR1 strain is derived from wild-type SL1344 was selected by exposure to tetracycline, and has increased expression of the AcrAB efflux pump. S10801 is an MDR strain isolated from the mesenteric lymph node of a septic calf and is resistant to tetracycline, ampicillin, chloramphenicol, nalidixic acid, and triple sulfa. The basis of multi-drug resistance in this strain is unknown.
Overnight Salmonella cultures were washed 3 times in PBS and diluted to an OD of 0.01 in Mueller Hinton Broth in 96-well flat bottom plates. Compound was added using a pin tool (CyBio) or manually, yielding a final concentration of no more than 1% DMSO. Plates were grown at 37° C. shaking and OD600 was monitored using a BioTek Eon incubator shaker microplate absorbance reader. For experiments in defined media, bacteria were grown in M9 minimal media supplemented with 100 mM Tris pH 7.4, 0.35% glycerol, 0.002% histidine, 10 mM MgCl2, and 0.1% casamino acids. Where indicated, media was supplemented with 5 μg/ml polymyxin B or 0.2 mM H2O2. For experiments with LL-37, bacteria were grown in M9 minimal media supplemented with 0.4% dextrose, 0.004% histidine, 1 mM MgSO4, and 5 μg/ml LL-37. For checkerboard assays, MIC was defined as the concentration at which no growth was visually observed.

[6] = system: S.Tm; test: Swimming assay in soft agar (proton motive force); format: cell-based, Salmonella enterica serovar Typhimurium; conditions: 400× the MIC (4 μM)
Experimental: One way to inhibit efflux pumps is to disrupt the proton motive force, which is required for transport by some EPs. […] Bacteria were injected into the center of 0.25% agar plates, and 10 μl of compound was added to paper disks on the periphery. […] Also ampicillin and rifampicin were tested. We plotted the halo radius versus the concentration as the fold above the MIC (FIG. 9G). […] Next, it was determined whether PAβN inhibited swimming; PAβN is thought to disrupt membranes over long incubations. […] Finally, the EPMs at […] were tested (FIGS. 9D-F).
Saturated overnight cultures were diluted to an OD600 of 0.01 in LB and 1 μL was injected into the center of low agar (0.25%) LB plates. Ten microliters of the indicated compounds were added to sterilized Whatman paper disks (diameter 0.7 cm) placed equidistant from the plate center.

O=C(N[C@H](CO)[C@H](O)c1ccc([N+](=O)[O-])cc1)C(Cl)Cl [Chloramphenicol]
percentage of infected macrophages (validated hit) ([1]; 25 μM): decreased the percentage of infected macrophages | hit status in SAFIRE screen [1]: Chloramphenicol^1

Br.NC(N)=NCCCC(NC(=O)C(N)Cc1ccccc1)C(=O)Nc1ccc2ccccc2c1 (stereo not drawn) [PAβN, Phe-Arg β-naphthylamide, reference compound] (H-Phe-Arg-βNA; configuration not given here)
Hoechst accumulation / fluorescence [2]: Hoechst accumulation increased | Hoechst accumulation / fluorescence ([2]; listed as PaβN): higher levels of fluorescence | glucose-activated efflux of Nile Red ([3]; 500 μM): inhibited glucose-activated efflux | Nile Red efflux, dose response ([3]; 7 minutes post-glucose addition): dose dependent inhibition of Nile Red efflux; also recorded: reduced the rate and extent of Nile Red export | Nile Red efflux after washout of compound ([3]; 15 minutes with compound, washed, then glucose): partially restored Nile Red export | Nile Red fluorescence in the absence of glucose (basal loss) ([3]; no glucose): inhibit basal loss of Nile Red | solubility in cell culture media [4]: insolubility of high concentrations in cell culture media | decrease of the tetracycline MIC ([5]; 250 μM (⅛ MIC), both strains MAR1 and S10801): 4 fold

CC1(C)S[C@@H]2[C@H](N)C(=O)N2[C@H]1C(=O)O [6-aminopenicillinate]
activity in the screen ([1]; 25 μM): modest activity | average B-score from the screen ([1]; 25 μM, duplicate, threshold −2.17): −2.29 | hit status in SAFIRE screen [1]: 6-aminopenicillinate^2

O=C(O)c1cn(C2CC2)c2cc(N3CCNCC3)c(F)cc2c1=O [ciprofloxacin, reference compound]
halo in swimming assay [6]: formed a halo similar in size to that of CCCP

Nc1c2ccccc2nc2ccccc12 [9-aminoacridine]
percentage of infected macrophages (validated hit) ([1]; 25 μM): decreased the percentage of infected macrophages | hit status in SAFIRE screen [1]: 9-aminoacridine^1

CN(C)[C@@H]1C(O)=C(C(N)=O)C(=O)[C@@]2(O)C(O)=C3C(=O)c4c(O)cccc4[C@@](C)(O)[C@H]3C[C@@H]12 [tetracycline]
increase in tetracycline MIC over wild type ([5]; MAR1): 2 fold | increase in tetracycline MIC over wild type ([5]; S10801): 64 fold | MIC ([5]; read-out: tetracycline MIC, MAR1): 4 µg/mL | MIC ([5]; read-out: tetracycline MIC, S10801): 128 µg/mL | MIC ([5]; read-out: tetracycline MIC, wild-type S.Tm): 2 µg/mL

O=C(NC1CCN(CCc2c[nH]c3ccccc23)CC1)c1ccccc1 [Indoramin]
hit status in SAFIRE screen [1]: Indoramin^1

CN(C)CCCN1c2ccccc2CCc2ccc(Cl)cc21 [Clomipramine]
hit status in SAFIRE screen [1]: Clomipramine^1
